In patent US20110020279A1 (priority 2010, published 2011):
Entries after “also recorded” stand apart in the source; their conditions may differ.

Columns and labels:
rabies virus [1] = conditions: cited from earlier work
rabies virus [2] = conditions: cited from earlier work; remark: listed apart in the source
rabies virus [3] = conditions: rat, in vivo; cited from earlier work
activated microglia = conditions: cited from earlier work
[4] = in vivo; cited from earlier work
HIV virus = conditions: cited from earlier work
herpes simplex virus = conditions: cited from earlier work
rabies virus [5] = conditions: human, in vivo, cited from earlier work
poliovirus type 1 = conditions: cited from earlier work
rabies virus [6] = conditions: in vivo; cited from earlier work
[7] = human, in vivo
rabies virus [8] = conditions: cited from earlier work; remark: listed apart in the source
[9] = in vivo, iv; cited from earlier work
[10] = system: vesicular stomatitis virus; conditions: cited from earlier work
[11] = mouse, in vivo; cited from earlier work
[12] = in vivo; cited from earlier work; remark: listed apart in the source
[13] = system: MCF-7 human breast cancer cells; conditions: cited from earlier work
[14] = set-up: species or system humans; conditions: human, in vivo
[15] = in vivo
[16] = system: LPS-activated macrophages; conditions: cited from earlier work
[17] = in vivo; cited from earlier work; remark: listed apart in the source
[18] = in vivo; cited from earlier work; remark: listed apart in the source

C[C@]12N[C@H](Cc3ccccc31)c1ccccc12 [MK-801]
rabies virus infection in primary neuron cultures (rabies virus [1]): inhibited

COc1cc2c(c(OC)c1OC)-c1ccc(OC)c(=O)cc1[C@@H](NC(C)=O)CC2 [colchicine]
rabies virus transport in neurites (rabies virus [2]): blocked | day post-infection until which no fluorescent foci could be detected (rabies virus [3]): 3 days

Oc1ccc(/C=C/c2cc(O)cc(O)c2)cc1 [Resveratol]
NO and TNF-alpha production by activated microglia (activated microglia): inhibits

insulin aspart
Effective duration of action [4]: 3 to 4 h | Maximum duration [4]: 4 to 6 h | Onset of Action [4]: ¼-½ | Peak Action [4]: ½-1¼

CNC1(c2ccccc2Cl)CCCCC1=O (stereo not shown) [ketamine]
replication of HIV virus (HIV virus): doesn't affect replication | replication of herpes simplex virus (herpes simplex virus): doesn't affect replication | outcome of rabies therapy with ketamine and induced coma (rabies virus [5]): failed to save the patient's life | replication of poliovirus type 1 (poliovirus type 1): doesn't affect replication | rabies virus infection/spread in rat brain (rabies virus [6]): restricted viral spread; also recorded: reduced | initial cardiovascular effects [7]: tachycardia and elevated blood pressure | ketamine therapy of rabies in experimental studies (rabies virus [8]): poor and disappointing | treatment of hiccup [9]: effectively | rabies virus infection in primary neuron cultures (rabies virus [1]): inhibited | reduction in the levels of rabies virus mRNAs relative to untreated neurons (rabies virus [1]): 5- to 11 fold | viral nucleoprotein and glycoprotein syntheses (rabies virus [1]): inhibited | replication of vesicular stomatitis virus [10]: doesn't affect replication

NPH (isophane) insulin
Effective duration of action [4]: 10 to 16 h | Maximum duration [4]: 14 to 18 h | Onset of Action [4]: 2 to 4 h | Peak Action [4]: 6 to 10 h

C[C@]12CC[C@@H]3c4ccc(O)cc4CC[C@H]3[C@@H]1C[C@@H](O)[C@@H]2O [Estriol]
NO and TNF-alpha production by activated microglia (activated microglia): inhibits

NC(=O)c1ncn([C@@H]2O[C@H](CO)[C@@H](O)[C@H]2O)n1 [ribavirin]
outcome of antiviral therapy, intravenous (rabies virus [5]; iv): unsuccessful | outcome of therapy, combined intravenous and intrathecal administration (rabies virus [5]; iv): unsuccessful

S [hydrogen sulfide]
blood pressure [11]: did not significantly decrease | health consequences afterwards [11]: no negative health consequences | borderline concentration for eye irritation [12]: 10-20 ppm | concentration at which olfactory nerve is paralyzed after a few inhalations [12]: 100-150 ppm | concentration causing immediate collapse with loss of breathing [12]: over 1000 ppm | concentration causing strong CNS stimulation, rapid breathing, loss of breathing [12]: 530-1000 ppm | concentration leading to eye damage [12]: 50-100 ppm | concentration leading to pulmonary edema with possibility of death [12]: 320-530 ppm | concentration with exposure limit of 8 hours per day [12]: Less than 10 ppm | lethal concentration for 50% of humans (LC50) [12]: 800 ppm

insulin lispro [IInsulin lispro]
Effective duration of action [4]: 3 to 4 h | Maximum duration [4]: 4 to 6 h | Onset of Action [4]: ¼-½ | Peak Action [4]: ½-1¼

insulin detemir
Effective duration of action [4]: 14 h | Maximum duration [4]: ~20 h | Onset of Action [4]: 3 to 4 h | Peak Action [4]: 6 to 8 h

insulin glargine
Effective duration of action [4]: 18 to 20 h | Maximum duration [4]: 20 to 24 h | Onset of Action [4]: 3 to 4 h | Peak Action [4]: 8 to 16 h

COc1cc(/C=C/C(=O)CC(=O)/C=C/c2ccc(O)c(OC)c2)ccc1O [curcumin]
mRNA and protein levels of inducible nitric oxide synthase (iNOS) (activated microglia): suppresses

insulin
increase of the cytotoxic effect of methotrexate by insulin [13]: up to 10,000 fold | memory, attention, functioning, mood [14]: improves memory, attention, and functioning | hypoglycemic effects [15]: did not develop the hypoglycemic effects

cytochalasin
rabies virus transport in neurites (rabies virus [2]): blocked

CC[C@]1(O)C[C@@H]2CN(CCc3c([nH]c4ccccc34)[C@@](C(=O)OC)(c3cc4c(cc3OC)N(C)[C@H]3[C@@](O)(C(=O)OC)[C@H](OC(C)=O)[C@]5(CC)C=CCN6CC[C@]43[C@@H]65)C2)C1 [vinblastine]
rabies virus transport in neurites (rabies virus [2]): blocked

CC(=O)[C@H]1CC[C@H]2[C@@H]3CCC4=CC(=O)CC[C@]4(C)[C@H]3CC[C@]12C [progesterone]
NO and TNF-alpha production by activated microglia (activated microglia): inhibits

regular (soluble) insulin
Effective duration of action [4]: 3 to 6 h | Maximum duration [4]: 6 to 8 h | Onset of Action [4]: ½-1 | Peak Action [4]: 2 to 3 h

CC(C)c1cccc(C(C)C)c1O [propofol]
LPS-induced NO biosynthesis [16]: significantly inhibited | levels of LPS-enhanced TNF-alpha, IL-1 beta, and IL-6 proteins [16]: significantly reduced | time to waking when not administered continuously [17]: 5 to 10 min

interferon-Alfa
outcome of therapy, combined intravenous and intrathecal administration (rabies virus [5]; iv): unsuccessful

biopterin
post recovery paresis symptoms [18]: relieved

insulin glulisine
Effective duration of action [4]: 3 to 4 h | Maximum duration [4]: 4 to 6 h | Onset of Action [4]: ¼-½ | Peak Action [4]: ½-1¼

C[C@]12CCC(=O)C=C1CC[C@@H]1[C@@H]2[C@@H](O)C[C@@]2(C)[C@H]1CC[C@]2(O)C(=O)CO [cortisol]
release of TNF-alpha from LPS-treated microglial cells (activated microglia): inhibits
